Assay results as given in patent US12551463B2, “Dosing of a Bruton's tyrosine kinase inhibitor” (Loxo Oncology, Inc., priority 2019, dated 2026).
Read-outs that look alike come from different tables or passages of the source.

Test: Phase 1/2 clinical study: pharmacokinetics in cancer patients
Format: in vivo, human
Conditions: for Cmax / Tmax / concentration at 0 h / concentration at 1 h / concentration at 2 h / concentration at 4 h / concentration at 8 h / concentration at 24 h / half-life: human, plasma, oral; for Cmax: read-out: Cmax Geo mean (% CV); for Tmax: read-out: Tmax Median (min, max); for concentration at 0 h / concentration at 1 h / concentration at 2 h / concentration at 4 h / concentration at 8 h / concentration at 24 h: read-out: Mean patient plasma CONC (SD); for concentration at 24 h: 24 hr (not measured, inferred based on predose)
Description: The study is an open-label, multi-center study of oral BTK-I to evaluate safety and efficacy as monotherapy and as part of combination therapy in patients with CLL/SLL and NHL who have failed or are intolerant to standard of care. This study includes monotherapy as well as combination treatment parts. The monotherapy part includes Phase 1 dose escalation and dose expansion as well as Phase 2. The combination therapy part is a Phase 1b (safety assessment and expansion) of BTK-I in combination with venetoclax, with or without anti-CD20 therapy. Phase 1 dose escalation will proceed prior to start of Phase 1b or Phase 2. Once a recommended Phase 2 dose (RP2D) is identified in Phase 1, enrollment can commence to the Phase 1b combination therapies and Phase 2 monotherapy cohorts.
BTK-I is administered in oral tablet form. Dose escalation will follow a 3+3 design starting with a 25 mg QD dose (followed by 50 mg QD (dose level cohort 2), 100 mg QD (dose level cohort 3), 150 mg QD (dose level cohort 4), 200 mg QD (dose level cohort 5), 250 mg QD (dose level cohort 6), and 300 mg QD (dose level cohort 7)). Cycle length will be 28 days. The drug limiting toxicity (DLT) period will be 28 days, commencing with the first dose of BTK-I.
The pharmacokinetic profiles and adverse events for BTK-I doses are summarized in the below tables.
Pharmacokinetic Parameters of BTK-I—in Cancer Patients at Steady State (Cycle 1 Day 8)

[1] = 50 mg QD, steady state (Cycle 1 Day 8), N=6
[2] = 100 mg QD, steady state (Cycle 1 Day 8), N=9
[3] = 150 mg QD, steady state (Cycle 1 Day 8), N=20
[4] = 200 mg QD, steady state (Cycle 1 Day 8), N=99
[5] = 300 mg QD, steady state (Cycle 1 Day 8), N=17

With COc1ccc(F)cc1C(=O)NCc1ccc(-c2nn([C@@H](C)C(F)(F)F)c(N)c2C(N)=O)cc1 [BTK-I, (S)-5-amino-3-(4-((5-fluoro-2-methoxybenzamido)methyl)phenyl)-1-(1,1,1-trifluoropropane-2-yl)-1H-pyrazole-4-carboxamide] as the compound, how does the Cmax [1] read?
The Cmax was 1420 ng/mL.

And the Tmax [1]?
Its Tmax is 1.5 h.

What about the concentration at 0 h (50 mg) of the same compound?
Its concentration at 0 h is 571 ng/mL.

What about the concentration at 1 h (50 mg) of the same compound?
The concentration at 1 h was 1150 ng/mL.

What about the concentration at 2 h (50 mg) of the same compound?
Its concentration at 2 h is 1300 ng/mL.

And the concentration at 4 h (50 mg)?
Its concentration at 4 h is 1170 ng/mL.

And the concentration at 8 h (50 mg)?
The concentration at 8 h was 1020 ng/mL.

What about the concentration at 24 h (50 mg) of the same compound?
The concentration at 24 h was 571 ng/mL.

And the half-life (100 mg QD, steady state (Cycle 1 Day 8), N = 8, % CV 33.9%, read-out: T1/2 Geo mean (% CV) (converted))?
Its half-life is 22.2 h.

And the Cmax [2]?
Its Cmax is 3910 ng/mL.

What about the Tmax [2] of the same compound?
The Tmax was 2 h.

And the concentration at 0 h (100 mg)?
Its concentration at 0 h is 1580 ng/mL.

What about the concentration at 1 h (100 mg) of the same compound?
The concentration at 1 h was 2170 ng/mL.

What about the concentration at 2 h (100 mg) of the same compound?
The concentration at 2 h was 3670 ng/mL.

And the concentration at 4 h (100 mg)?
Its concentration at 4 h is 2800 ng/mL.

And the concentration at 8 h (100 mg)?
The concentration at 8 h was 2360 ng/mL.

And the concentration at 24 h (100 mg)?
The concentration at 24 h was 1580 ng/mL.

What about the Cmax [3] of the same compound?
The Cmax was 4680 ng/mL.

And the Tmax [3]?
The Tmax was 2 h.

What about the concentration at 0 h (150 mg) of the same compound?
Its concentration at 0 h is 1800 ng/mL.

And the concentration at 1 h (150 mg)?
The concentration at 1 h was 3670 ng/mL.

What about the concentration at 2 h (150 mg) of the same compound?
The concentration at 2 h was 4640 ng/mL.

What about the concentration at 4 h (150 mg) of the same compound?
Its concentration at 4 h is 3660 ng/mL.

And the concentration at 8 h (150 mg)?
The concentration at 8 h was 3320 ng/mL.

What about the concentration at 24 h (150 mg) of the same compound?
The concentration at 24 h was 1800 ng/mL.

What about the half-life (200 mg QD, steady state (Cycle 1 Day 8), N = 64, % CV 56.2%, read-out: T1/2 Geo mean (% CV) (converted)) of the same compound?
Its half-life is 19.9 h.

And the Cmax [4]?
Its Cmax is 5770 ng/mL.

What about the Tmax [4] of the same compound?
Its Tmax is 2 h.

And the concentration at 0 h (200 mg)?
Its concentration at 0 h is 2770 ng/mL.

And the concentration at 1 h (200 mg)?
Its concentration at 1 h is 4940 ng/mL.

And the concentration at 2 h (200 mg)?
The concentration at 2 h was 6160 ng/mL.

What about the concentration at 4 h (200 mg) of the same compound?
Its concentration at 4 h is 5270 ng/mL.

And the concentration at 8 h (200 mg)?
The concentration at 8 h was 4660 ng/mL.

And the concentration at 24 h (200 mg)?
The concentration at 24 h was 2770 ng/mL.

What about the half-life (250 mg QD, steady state (Cycle 1 Day 8), N = 21, % CV 50.6%, read-out: T1/2 Geo mean (% CV) (converted)) of the same compound?
Its half-life is 17.4 h.

What about the Tmax (250 mg QD, steady state (Cycle 1 Day 8), N=25) of the same compound?
The Tmax was 2 h.

What about the concentration at 0 h (250 mg) of the same compound?
The concentration at 0 h was 3160 ng/mL.

And the concentration at 1 h (250 mg)?
The concentration at 1 h was 6910 ng/mL.

What about the concentration at 2 h (250 mg) of the same compound?
Its concentration at 2 h is 7870 ng/mL.

What about the concentration at 4 h (250 mg) of the same compound?
Its concentration at 4 h is 6840 ng/mL.

And the concentration at 8 h (250 mg)?
The concentration at 8 h was 5500 ng/mL.

What about the concentration at 24 h (250 mg) of the same compound?
Its concentration at 24 h is 3160 ng/mL.

And the half-life (300 mg QD, steady state (Cycle 1 Day 8), N = 16, % CV 102%, read-out: T1/2 Geo mean (% CV) (converted))?
Its half-life is 30.1 h.

What about the Cmax [5] of the same compound?
Its Cmax is 10700 ng/mL.

And the Tmax [5]?
The Tmax was 2 h.

What about the concentration at 0 h (300 mg) of the same compound?
Its concentration at 0 h is 5510 ng/mL.

What about the concentration at 1 h (300 mg) of the same compound?
Its concentration at 1 h is 9730 ng/mL.

And the concentration at 2 h (300 mg)?
The concentration at 2 h was 10700 ng/mL.

And the concentration at 4 h (300 mg)?
The concentration at 4 h was 8420 ng/mL.

What about the concentration at 8 h (300 mg) of the same compound?
Its concentration at 8 h is 7510 ng/mL.

And the concentration at 24 h (300 mg)?
The concentration at 24 h was 5510 ng/mL.

And the half-life (patients, read-out: observed half-life (converted))?
Its half-life is ~20 h.

What about the “target coverage for wild-type and C481S-mutated BTK” value (starting at the 50 mg QD dose, estimates from cell-based potencies) of the same compound?
Its value is “delivered >IC90 target coverage”.
